Patent US20250263496A1, “Neutrophil-Activating Therapy for the Treatment of Cancer” (The Board of Trustees of the Leland Stanford Junior …, priority 2024, published 2025)

Tested on: B16 tumors
Experiment: Oxidative damage in B16 tumors (DNA/RNA oxidation, oxidized glutathione)
Assay type: in vivo, mouse
Conditions: agent given prior to neutrophil-activating therapy
Description: Tumors were dissected away from surrounding fat, fixed in 2% paraformaldehyde for 2 hours at 4° C., equilibrated in a 30% sucrose solution at 4° C., and embedded and frozen in O.C.T. Compound (Tissue-Tek). Slides were cut to […] and blocked with 1% BSA and 10% serum matched to the secondary antibody species. […] All parameters that were quantified were acquired with identical microscope settings and adjusted identically in Photoshop, and all adjustments were applied equally across the entire tumor. Quantification was performed in ImageJ, using the wand tool on the overlaid multichannel image to draw a border around the tumor and then measuring the percent area within that border with signal for the channel of the marker quantified.
Determination of oxidized glutathione content. […] The percentage of oxidized glutathione was calculated from the reduced glutathione and total glutathione values determined by the kit.

## N#Cc1cc(-c2n[nH]c(-c3ccncc3)n2)ccn1 [topiroxostat]
  effect of agent on oxidation in tumors: prevented oxidation in tumors
